According to patent US4038388A, “Antimicrobial compositions” (Paterson Zochonis & Company Limited, priority 1976, dated 1977):

Legend:
Assay in all cases: Antibiotic Sensitivity
Type in all cases: cell-based
Coliform 518 = tested on: Coliform 518; also: key: R: resistant; S: sensitive; SS: slightly sensitive
Coliform 608 = tested on: Coliform 608; also: key: R: resistant; S: sensitive; SS: slightly sensitive
Coliform 578 = tested on: Coliform 578; also: key: R: resistant; S: sensitive; SS: slightly sensitive
E. coli 566 = tested on: E. coli 566; also: key: R: resistant; S: sensitive; SS: slightly sensitive
E. coli 559 = tested on: E. coli 559; also: key: R: resistant; S: sensitive; SS: slightly sensitive
E. coli 604 = tested on: E. coli 604; also: key: R: resistant; S: sensitive; SS: slightly sensitive
E. coli 026 = tested on: E. coli 026; also: key: R: resistant; S: sensitive; SS: slightly sensitive
E. coli 9395 = tested on: E. coli 9395; also: key: R: resistant; S: sensitive; SS: slightly sensitive
Pr. rettgeri 7475 = tested on: Pr. rettgeri 7475; also: key: R: resistant; S: sensitive; SS: slightly sensitive
Pr. vulgaris 4635 = tested on: Pr. vulgaris 4635; also: key: R: resistant; S: sensitive; SS: slightly sensitive
Pr. miribilis 25702 = tested on: Pr. miribilis 25702; also: key: R: resistant; S: sensitive; SS: slightly sensitive
Ps. multivorans BS = tested on: Ps. multivorans BS; also: key: R: resistant; S: sensitive; SS: slightly sensitive
Ps. multivorans MB = tested on: Ps. multivorans MB; also: key: R: resistant; S: sensitive; SS: slightly sensitive
Ps. aeruginosa 5267 = tested on: Ps. aeruginosa 5267; also: key: R: resistant; S: sensitive; SS: slightly sensitive
Ps. aeruginosa 1999 = tested on: Ps. aeruginosa 1999; also: key: R: resistant; S: sensitive; SS: slightly sensitive
Kleb, acrogenes 8172 = tested on: Kleb, acrogenes 8172; also: key: R: resistant; S: sensitive; SS: slightly sensitive
Kleb. aerogenes 22352 = tested on: Kleb. aerogenes 22352; also: key: R: resistant; S: sensitive; SS: slightly sensitive
Serratia marcescens = tested on: Serratia marcescens; also: key: R: resistant; S: sensitive; SS: slightly sensitive
Strep. faecalis 20190 = tested on: Strep. faecalis 20190; also: key: R: resistant; S: sensitive; SS: slightly sensitive
Strep. faecalia 559 = tested on: Strep. faecalia 559; also: key: R: resistant; S: sensitive; SS: slightly sensitive
Staph. albus 474 = tested on: Staph. albus 474; also: key: R: resistant; S: sensitive; SS: slightly sensitive
Staph. albus 476 = tested on: Staph. albus 476; also: key: R: resistant; S: sensitive; SS: slightly sensitive
Staph. albus 473 = tested on: Staph. albus 473; also: key: R: resistant; S: sensitive; SS: slightly sensitive
Staph. albus 479 = tested on: Staph. albus 479; also: key: R: resistant; S: sensitive; SS: slightly sensitive
Staph. aureus 20477 = tested on: Staph. aureus 20477; also: key: R: resistant; S: sensitive; SS: slightly sensitive
Staph. aureus 590 = tested on: Staph. aureus 590; also: key: R: resistant; S: sensitive; SS: slightly sensitive
Staph. pyogenes = tested on: Staph. pyogenes; also: key: R: resistant; S: sensitive; SS: slightly sensitive
Staph. aureus 7447 = tested on: Staph. aureus 7447; also: key: R: resistant; S: sensitive; SS: slightly sensitive
Candida albicans = tested on: Candida albicans; also: key: R: resistant; S: sensitive; SS: slightly sensitive
Proteus 371 = tested on: Proteus 371
Proteus 20522 = tested on: Proteus 20522
Proteus 20029 = tested on: Proteus 20029
Proteus 20523 = tested on: Proteus 20523
Proteus 20531 = tested on: Proteus 20531
Pr. mirabilis 5887 = tested on: Pr. mirabilis 5887
Pr. mirabilis 25942 = tested on: Pr. mirabilis 25942

SMILES	Antibiotic Sensitivity (Coliform 518)	Antibiotic Sensitivity (Coliform 608)	Antibiotic Sensitivity (Coliform 578)	Antibiotic Sensitivity (E. coli 566)	Antibiotic Sensitivity (E. coli 559)	Antibiotic Sensitivity (E. coli 604)	Antibiotic Sensitivity (E. coli 026)	Antibiotic Sensitivity (E. coli 9395)	Antibiotic Sensitivity (Pr. rettgeri 7475)	Antibiotic Sensitivity (Pr. vulgaris 4635)	Antibiotic Sensitivity (Pr. miribilis 25702)	Antibiotic Sensitivity (Ps. multivorans BS)	Antibiotic Sensitivity (Ps. multivorans MB)	Antibiotic Sensitivity (Ps. aeruginosa 5267)	Antibiotic Sensitivity (Ps. aeruginosa 1999)	Antibiotic Sensitivity (Kleb, acrogenes 8172)	Antibiotic Sensitivity (Kleb. aerogenes 22352)	Antibiotic Sensitivity (Serratia marcescens)	Antibiotic Sensitivity (Strep. faecalis 20190)	Antibiotic Sensitivity (Strep. faecalia 559)	also measured
CN(C)[C@@H]1C(=O)C(C(N)=O)=C(O)[C@@]2(O)C(=O)C3=C(O)c4c(O)cccc4[C@@](C)(O)[C@H]3C[C@@H]12 [Tetracycline, tetracycline]	S	S	S	S	S	S	R	S	S	S	S	S	S	S	S	S	S	S	R	R	Antibiotic Sensitivity (Staph. albus 474): R; Antibiotic Sensitivity (Staph. albus 476): R; Antibiotic Sensitivity (Staph. albus 473): R; Antibiotic Sensitivity (Staph. albus 479): R; Antibiotic Sensitivity (Staph. aureus 20477): R; Antibiotic Sensitivity (Staph. aureus 590): R; Antibiotic Sensitivity (Staph. pyogenes): R; Antibiotic Sensitivity (Staph. aureus 7447): S; Antibiotic Sensitivity (Candida albicans): R
Oc1ccc(Cl)c2cccnc12 [CHQ, 5-chloro-8-hydroxyquinoline]	S	S	S	S	S	S	S	S	S	S	S	S	S	R	R	S	S	S	S	S	Antibiotic Sensitivity (Proteus 371): S; Antibiotic Sensitivity (Proteus 20522): S; Antibiotic Sensitivity (Proteus 20029): S; Antibiotic Sensitivity (Proteus 20523): S; Antibiotic Sensitivity (Proteus 20531): S; Antibiotic Sensitivity (Pr. mirabilis 5887): S; Antibiotic Sensitivity (Pr. mirabilis 25942): S; Antibiotic Sensitivity (Staph. albus 474): S; Antibiotic Sensitivity (Staph. albus 476): S; Antibiotic Sensitivity (Staph. albus 473): S; Antibiotic Sensitivity (Staph. albus 479): S; Antibiotic Sensitivity (Staph. aureus 20477): S; Antibiotic Sensitivity (Staph. aureus 590): S; Antibiotic Sensitivity (Staph. pyogenes): S; Antibiotic Sensitivity (Staph. aureus 7447): S; Antibiotic Sensitivity (Candida albicans): S
